Legend:
[1] = Preparation of compound stocks in DMSO (dissolution observed); assay type: physicochemical
Experimental: (§1) Compounds. Stocks of compounds 1 through 8 on the list below were prepared in PBS at 100× the concentration indicated in red type. […] This stock was 100× of final concentration. A 20 mg/ml stock of compound 10 (CBD) was prepared in DMSO. […] This stock was 200× of final concentration.

human fibroblast cells = assay: HA production assessment, SDS-PAGE of fibroblast supernatants; assay type: cell-based; conditions: Experiment 2, primary adult human dermal fibroblasts, 72 hours, octapeptide 100 ug/mL, SymDecanox 250 ug/mL, others 500 ug/mL, FIG. 6
Experimental: In a second experiment, HA production was also assessed with the test compounds below. Briefly, primary adult human dermal fibroblast cells were cultured until near confluent in 6 well plates. The cells were treated with the compounds and concentrations indicated to the right. After 72 hours, 100 μL of media were collected from each treatment condition and was concentrated in a SpeedVac concentrator to a final volume of ~10 uL.
All 10 μL of the supernatants were loaded onto an acrylamide gel (NuPAGE 4-12% Bis-Tris Protein Gel) and run at 200V for 3 hours. The gel was stained to detect the presence of HA. Data is seen in FIG. 6. […] Lane 11 is the negative control, representing the untreated cells. This band represents the cells constitutive level of HA. Treating the cells with all the indicated compounds (lanes 1-10) produced an increased level of high molecular weight HA. […]

[2] = tested on: Hyaluronic Acid Synthase 2 (HAS2); assay: Gene expression study (RNA sequencing), HAS2 expression in keratinocytes; assay type: cell-based; conditions: human keratinocytes, 24 hours of compound exposure, FIG. 2
Experimental: (§2) Cell Lines. Human adult dermal fibroblast and keratinocyte cell lines were treated with 11 different compound treatments (plus DMSO control as treatment #12). Primary fibroblasts, keratinocytes sourced from ZenBio. Primary cells were plated in cell specific media at 5K or 10K cells per cm^2 as per ZenBio instructions. Cells were plated in 48 well plates (Greiner) in triplicate, one cell line per plate. Media volume was 500 ul per well. Outer two columns of wells were not used. All rows were used. Cells were cultured for 2 days in 37° C. 5% CO2 incubator. After 48 hours all the cell cultures were uniform and appeared healthy, no appreciable number of floating dead cells or evidence of vacuolization of cells that might indicate apoptotic or dying cells.
as §1
(§3) Dosing. After 48 hours of attachment culture, fibroblasts and keratinocytes were treated with the test compounds. […]
(§4) RNA Lysate preparation. […] All samples were shipped frozen on dry ice to MedGenome for RNA extraction, library construction and sequencing to 25M paired end 100 bp reads per sample. […]

Hyaluronidase 2 (HYAL2) = assay: Gene expression study (RNA sequencing), HYAL2 expression in keratinocytes; assay type: cell-based; conditions: human keratinocytes, 24 hours of compound exposure, FIG. 3
Experimental: as §2, §1, §3, §4

Which “Dissolution of stock in DMSO” value ([1]; 20 mg/ml stock in DMSO) does the source give for `C=C(C)[C@@H]1CCC(C)=C[C@H]1c1c(O)cc(CCCCC)cc1O` [CBD] here?
The value was “slightly cloudy”.

For `CCCCCCCC(=O)CCc1ccc(O)c(OC)c1` [SymDecanox™, hydroxymethoxyphenyl decanone], which “Level of high molecular weight HA (band on gel)” value (shortened to “Level”) (human fibroblast cells) is on record?
The value was “secrete high molecular weight HA”.

With “Hexapeptide-11: hexapeptide test agent; FVAPFP (SEQ ID NO: 19) is printed as a hexapeptide sequence, not tied explicitly” as the compound, how does the “HAS2 expression in keratinocytes” value [2] read?
Its value is “excellent upregulation”.

And the “Hyaluronidase 2 (HYAL2) expression in keratinocytes” value (Hyaluronidase 2 (HYAL2))?
The value was “potent downregulation”.

Which “Dissolution of stock in DMSO” value ([1]; 50 mg/ml stock in DMSO, extensive vortexing and warming) does the source give for phosphatidylserine here?
The value was “did not fully go into solution”.

And the “Level” value (human fibroblast cells)?
The value was “secrete high molecular weight HA”.

With “tetradecyl-diaminobutyroylvalyldiaminobutyric urea trifluoroacetate [SynHycan]” as the compound, how does the “Level” value (human fibroblast cells) read?
Its value is “secrete high molecular weight HA”.
